Experiments:
[1] = tested on: K. pneumoniae (ATCC 10031); assay: Antibacterial assay (MIC50); type: cell-based, Klebsiella pneumoniae; settings: against K. pneumoniae; compared with 31.25 µg mL^−1 of Oliveira et al.
Description: The human-pathogenic Gram-negative bacteria K. pneumoniae (ATCC 10031) strain was obtained from the Laboratory of Plant Toxins (LABTOX) of the Federal University of Ceará (UFC).

K. pneumoniae cells = settings: 31.25 µg mL^−1, 24 h
Description: After this, samples were washed twice with 50 mM sodium acetate pH 5.2, with centrifugations at 12,000× g for 15 min at 4 °C. At the end of the washes, the samples were resuspended in 300 µL in the same buffer and frozen for 24 h. Then, the frozen samples were sonicated for 30 min to break the cell wall and membrane, the samples were centrifuged again, and the supernatant was collected.
After that, the Bradford assay was performed to determine the protein concentration in the samples. This step was followed by adding a 10 mM DTT solution under incubation for 1 h at 37 °C to reduce the proteins. Then iodoacetamide was added to a final concentration of 15 mM and incubated for 30 min in a dark room to alkylate the reduced proteins. The proteins reduced and alkylated were digested using trypsin gold (Promega, Madison, WI, USA) to a final concentration of 1:20 (w/w) as described by manufacturers. The trypsin digestion was performed for 16 h at 37 °C. Finally, the samples were dried in a speed vacuum (Eppendorf, Hamburg, Germany) for 3 h and analyzed by ESI-QUAD-TOF mass spectrometer.
Tandem mass spectra were extracted into PKL files for both samples, and the proteins were searched using MASCOT MS/MS ions search from MATRIX SCIENCE (https://www.matrixscience.com/cgi/search_form.pl?FORMVER=2&SEARCH=MIS (accessed on 15 September 2022)) against UP625_E_coli_K12 (AA), UP808_K_pneumoniae and SwissProt databases (the taxonomy was set in bacteria). The terms for the search were: fixed modifications to Carbamidomethyl (C); variable modifications to Oxidation […]; the Peptide tolerance was set to 1.2 DA (with 1% FDR); the MS/MS tolerance was set to 0.6 DA; the peptide charge was set to 2+, 3+, and 4+; and finally, the instrument was set to ESI-QUAD-TOF. The proteins identified in both samples were searched for in UNIPROT and separated into 3 sets (unique from control, unique from the cells treated with Mo-CBP3-PepI, and Mo-CBP3-PepI x control shared proteins).
The proteins with a fold-change value ≥ 1.5 (p < 0.05, Tukey’s test) that were up-accumulated (increased the abundance), and proteins with a fold-change value ≤ 0.5 (p < 0.05, Tukey’s test) that were down-accumulated (decreased the abundance) were taken into consideration for comparisons. For each protein, its corresponding FASTA file was downloaded. Then, the blast2go program (https://www.blast2go.com/ (accessed on 30 September 2022)) was used to categorize the proteins detected by Gene Ontology (GO) annotation according to Molecular function, […], and subcellular location.

[2] = parameters: method as in PMID 30389515; settings: design feature; cited from earlier work
Description: Synthetic antimicrobial peptides emerged as a solution to solve the problems presented by natural antimicrobial peptides. […] To answer the first question, it is necessary to revert to the design process of Mo-CBP3-PepI.

CPAIQRCC [Mo-CBP3-PepI]
MIC50, experiments repeated here [1]: same results | Fold Change Mo-CBP3-PepI vs. DMSO: Methylenetetrahydrofolate--tRNA-(uracil-5-)-methyltransferase TrmFO (K. pneumoniae cells; A4WRQ2): 0.948 | Fold Change Mo-CBP3-PepI vs. DMSO: 50S ribosomal protein L22 (K. pneumoniae cells; A5IYY1): 0.187 | Fold Change Mo-CBP3-PepI vs. DMSO: Phosphoenolpyruvate carboxykinase (ATP) (K. pneumoniae cells; A8AQV7): 0.990 | Fold Change Mo-CBP3-PepI vs. DMSO: Xylose isomerase (K. pneumoniae cells; B5ZQV6): 1.062 | Fold Change Mo-CBP3-PepI vs. DMSO: Pantothenate synthetase (K. pneumoniae cells; B8I2Z3): 1.142 | Fold Change Mo-CBP3-PepI vs. DMSO: Chaperonin GroEL (K. pneumoniae cells; P0A6F5): 1.444 | Fold Change Mo-CBP3-PepI vs. DMSO: Pantothenate kinase (K. pneumoniae cells; P0A6I3): 0.548 | Fold Change Mo-CBP3-PepI vs. DMSO: HTH-type transcriptional regulator ArgP (K. pneumoniae cells; P0A8S1): 2.364 | Fold Change Mo-CBP3-PepI vs. DMSO: 50S ribosomal protein L7/L12 (K. pneumoniae cells; P0A466): 1.979 | Fold Change Mo-CBP3-PepI vs. DMSO: Zinc resistance-associated protein (K. pneumoniae cells; P0AAA9): 1.682 | Fold Change Mo-CBP3-PepI vs. DMSO: Cysteine synthase A (K. pneumoniae cells; P0ABK5): 0.596 | Fold Change Mo-CBP3-PepI vs. DMSO: Fimbriae Z protein (K. pneumoniae cells; P0AEL8): 0.690 | Fold Change Mo-CBP3-PepI vs. DMSO: Ferrichrome outer membrane transporter/phage receptor (K. pneumoniae cells; P06971): 1.063 | Fold Change Mo-CBP3-PepI vs. DMSO: Iron (3+)-hydroxamate import system permease protein FhuB (K. pneumoniae cells; P06972): 0.948 | Fold Change Mo-CBP3-PepI vs. DMSO: 2-succinyl-5-enolpyruvyl-6-hydroxy-3-cyclohexene-1-carboxylate synthase (K. pneumoniae cells; P17109): 3.486 | Fold Change Mo-CBP3-PepI vs. DMSO: Sensor protein PhoQ (K. pneumoniae cells; P23837): 0.823 | Fold Change Mo-CBP3-PepI vs. DMSO: Lipopolysaccharide core biosynthesis protein RfaZ (K. pneumoniae cells; P27241): 2.038 | Fold Change Mo-CBP3-PepI vs. DMSO: Inner membrane protein YhjD (K. pneumoniae cells; P37642): 0.362 | Fold Change Mo-CBP3-PepI vs. DMSO: Gamma-glutamylputrescine oxidoreductase (K. pneumoniae cells; P37906): 0.985 | Fold Change Mo-CBP3-PepI vs. DMSO: Endonuclease 8 (K. pneumoniae cells; P50465): 0.287 | Fold Change Mo-CBP3-PepI vs. DMSO: Sensor histidine kinase GlrK (K. pneumoniae cells; P52101): 0.752 | Fold Change Mo-CBP3-PepI vs. DMSO: 2.3-bisphosphoglycerate-dependent phosphoglycerate mutase (K. pneumoniae cells; P62707): 0.519 | Fold Change Mo-CBP3-PepI vs. DMSO: Low affinity potassium transport system protein kup (K. pneumoniae cells; P63183): 1.704 | Fold Change Mo-CBP3-PepI vs. DMSO: Peptide methionine sulfoxide reductase MsrB (K. pneumoniae cells; P75129): 14.104 | Fold Change Mo-CBP3-PepI vs. DMSO: Probable cytosol aminopeptidase (K. pneumoniae cells; P75206): 2.097 | Fold Change Mo-CBP3-PepI vs. DMSO: tRNA uridine 5-carboxymethylaminomethyl modification enzyme MnmG (K. pneumoniae cells; P75221): 0.487 | Fold Change Mo-CBP3-PepI vs. DMSO: Phosphate acyltransferase (K. pneumoniae cells; P75232): 3.096 | Fold Change Mo-CBP3-PepI vs. DMSO: Putative ABC transporter ATP-binding protein MPN_334 (K. pneumoniae cells; P75444): 1.336 | Fold Change Mo-CBP3-PepI vs. DMSO: Putative acetyltransferase MPN_114 (K. pneumoniae cells; P75448): 1.703 | Fold Change Mo-CBP3-PepI vs. DMSO: Cytadherence high molecular weight protein 2 (K. pneumoniae cells; P75471): 1.682 | Fold Change Mo-CBP3-PepI vs. DMSO: Oligopeptide transport ATP-binding protein OppD (K. pneumoniae cells; P75552): 0.948 | Fold Change Mo-CBP3-PepI vs. DMSO: Phenylacetate-coenzyme A ligase (K. pneumoniae cells; P76085): 1.666 | Fold Change Mo-CBP3-PepI vs. DMSO: Sensor histidine kinase HprS (K. pneumoniae cells; P76339): 0.213 | Fold Change Mo-CBP3-PepI vs. DMSO: UDP-glucose 6-dehydrogenase (K. pneumoniae cells; P76373): 0.902 | Fold Change Mo-CBP3-PepI vs. DMSO: Cation efflux system protein CusC (K. pneumoniae cells; P77211): 0.920 | Fold Change Mo-CBP3-PepI vs. DMSO: Glycerate 3-kinase (K. pneumoniae cells; P77364): 0.745 | Fold Change Mo-CBP3-PepI vs. DMSO: Glutathione S-transferase YfcF (K. pneumoniae cells; P77544): 0.273 | Fold Change Mo-CBP3-PepI vs. DMSO: HTH-type transcriptional regulator SutR (K. pneumoniae cells; P77626): 2.566 | Fold Change Mo-CBP3-PepI vs. DMSO: Lon protease (K. pneumoniae cells; P78025): 0.342 | Fold Change Mo-CBP3-PepI vs. DMSO: Pyruvate kinase (K. pneumoniae cells; P78031): 3.139 | Fold Change Mo-CBP3-PepI vs. DMSO: Undecaprenyl-diphosphatase (K. pneumoniae cells; Q2KX31): 1.340 | Fold Change Mo-CBP3-PepI vs. DMSO: Periplasmic trehalase (K. pneumoniae cells; Q4UZ12): 0.937 | Fold Change Mo-CBP3-PepI vs. DMSO: GMP synthase (glutamine-hydrolyzing) (K. pneumoniae cells; Q6APU2): 4.596 | Fold Change Mo-CBP3-PepI vs. DMSO: Elongation factor G (K. pneumoniae cells; Q7NAV3): 0.234 | Fold Change Mo-CBP3-PepI vs. DMSO: Diaminopimelate decarboxylase (K. pneumoniae cells; Q8K9C4): 3.546 | Fold Change Mo-CBP3-PepI vs. DMSO: Bifunctional protein FolD (K. pneumoniae cells; Q88WM8): 0.726 | Fold Change Mo-CBP3-PepI vs. DMSO: Mgp-operon protein 3 (K. pneumoniae cells; Q50341): 0.654 | hydrophobic ratio [2]: 62% | net charge [2]: +1
